Biological target: CXCR3 (Macaca fascicularis, UniProt A0A2K5UV19)
Experiment: functional cellular assay measuring calcium flux in CXCR3 transfected cells (block of CXCR3/IP-10 interaction)
Type: cell-based, Cyno
Settings: IP-10 induced intracellular calcium flux; Cyno-CHO cells stably expressing recombinant CXCR3 and G-alpha-16; IP-10 at EC80; read-out: IC50
Method: Compounds are assessed for the ability to block the interaction of CXCR3 and IP-10 in a functional cellular assay measuring calcium flux in CXCR3 transfected cells.
Cyno-CHO cells, stably expressing recombinant CXCR3 and G-alpha-16 are grown in F12 medium (Mediatech #45000-360) supplemented with 10% (V/V) FBS (Mediatech #35-01500), 1% Geneticin (Invitrogen #10131-027) and 0.2% Zeocin (Invitrogen #R250-05). The cells are spun down and re-suspended in growth media to a concentration of […]. 25 microL of cell suspension is added to each well of a BD-384-well TC treated plate, providing 12,000 cells/well. The plate is incubated at 37° C./5% CO2 overnight. On the day of the assay, the plates are removed, the media is flicked out and 25 microL of Ca-4 dye in assay buffer (HBSS, 10 mM HEPES ph 7.4), containing 2 mM probenacid is added to each well. The cell assay plates are then incubated at 37° C./5% CO2 for one hour.
Test compounds are dissolved in DMSO and diluted to 1.045 mM in DMSO. Just prior to assay, 2.75 microL of appropriately diluted test compound are added to each well of a 384 well plate containing 45 microL of HBSS buffer. After mixing, 5 microL of diluted compound are added to each well of the cell assay plate for a final assay concentration of 10 microM. The plate is incubated at room temperature for 15 min. 10 microL of IP-10 stock solution in HBSS (4× EC80 concentration) are added to each well of the cell assay plate except those cells reserved as blank wells containing buffer only. Intracellular calcium flux is recorded on the HAMAMTSU FDSS6000, using excitation at 480 nm and emission at 540 nm. Data are analyzed using Activity Base software.
In general, the preferred potency range (IC50) of compounds in the above assay is between 1 nM to 3 μM, and the most preferred potency range is 1 nM to 200 nM.

Chain of CXCR3 (A0A2K5UV19 entry or part of it): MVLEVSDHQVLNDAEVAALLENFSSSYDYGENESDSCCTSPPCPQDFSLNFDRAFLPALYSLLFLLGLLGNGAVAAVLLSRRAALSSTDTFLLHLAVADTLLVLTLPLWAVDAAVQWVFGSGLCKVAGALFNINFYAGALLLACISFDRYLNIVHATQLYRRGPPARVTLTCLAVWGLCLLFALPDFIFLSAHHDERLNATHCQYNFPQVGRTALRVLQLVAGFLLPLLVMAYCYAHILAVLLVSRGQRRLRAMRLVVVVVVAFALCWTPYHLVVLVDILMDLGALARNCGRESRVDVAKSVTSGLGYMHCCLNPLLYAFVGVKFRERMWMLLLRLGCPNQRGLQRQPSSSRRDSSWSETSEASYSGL

SMILES: Cc1cc(C)n(CC(=O)N2CCN(c3ccccc3-c3cnc(N4CCC(C)(C)CC4)nc3)CC2)n1 [1-(4-{2-[2-(4,4-Dimethyl-piperidin-1-yl)-pyrimidin-5-yl]-phenyl}-piperazin-1-yl)-2-(3,5-dimethyl-pyrazol-1-yl)-ethanone]
- IC50: 12 nM

SMILES: Cc1cc(C)n(CC(=O)N2CCN(c3ccccc3-c3cnc(N4CCC(N(C)C)CC4)nc3)CC2)n1 [1-(4-{2-[2-(4-Dimethylamino-piperidin-1-yl)-pyrimidin-5-yl]-phenyl}-piperazin-1-yl)-2-(3,5-dimethyl-pyrazol-1-yl)-ethanone]
- IC50: 31 nM

SMILES: CN1CCN(c2ncc(-c3ccccc3N3CCN(C(=O)Cn4ccc5cccnc54)CC3)cn2)CC1 [1-(4-{2-[2-(4-Methyl-piperazin-1-yl)-pyrimidin-5-yl]-phenyl}-piperazin-1-yl)-2-pyrrolo[2,3-b]pyridin-1-yl-ethanone]
- IC50: 11 nM

SMILES: CC1CN(c2ccc(C(F)(F)F)cc2-c2cnc(N3CCC(O)CC3)nc2)CCN1C(=O)Cn1ccc2cccnc21 (centres unmarked) [1-(4-{2-[2-(4-hydroxypiperidin-1-yl)pyrimidin-5-yl]-4-(trifluoromethyl)phenyl}-2-methylpiperazin-1-yl)-2-(1H-pyrrolo[2,3-b]pyridin-1-yl)ethanone]
- IC50: 10 nM

SMILES: CC1CN(c2ccc(C(F)(F)F)cc2-c2cnc(N3CCC(O)CC3)nc2)CCN1C(=O)Cn1ccc2ccncc21 (centres unmarked) [1-(4-{2-[2-(4-hydroxypiperidin-1-yl)pyrimidin-5-yl]-4-(trifluoromethyl)phenyl}-2-methylpiperazin-1-yl)-2-(1H-pyrrolo[2,3-c]pyridin-1-yl)ethanone]
- IC50: 7 nM

SMILES: CC1CN(c2ccc(C(F)(F)F)cc2-c2cnc(N3CCC(O)CC3)nc2)CCN1C(=O)Cn1cnc2cccnc21 (centres unmarked) [1-(4-{2-[2-(4-hydroxypiperidin-1-yl)pyrimidin-5-yl]-4-(trifluoromethyl)phenyl}-2-methylpiperazin-1-yl)-2-(3H-imidazo[4,5-b]pyridin-3-yl)ethanone]
- IC50: 11 nM

SMILES: CC1CN(c2ccccc2-c2cnc(N3CCC(O)CC3)nc2)CCN1C(=O)Cn1ccc2cccnc21 (centres unmarked) [1-(4-{2-[2-(4-hydroxypiperidin-1-yl)pyrimidin-5-yl]phenyl}-2-methylpiperazin-1-yl)-2-(1H-pyrrolo[2,3-b]pyridin-1-yl)ethanone]
- IC50: 9 nM

SMILES: CC1CN(c2ccccc2-c2cnc(N3CCC(O)CC3)nc2)CCN1C(=O)Cn1ccc2ccncc21 (centres unmarked) [1-(4-{2-[2-(4-hydroxypiperidin-1-yl)pyrimidin-5-yl]phenyl}-2-methylpiperazin-1-yl)-2-(1H-pyrrolo[2,3-c]pyridin-1-yl)ethanone]
- IC50: 8 nM

SMILES: CC1CN(c2ccccc2-c2cnc(N3CCC(O)CC3)nc2)CCN1C(=O)Cn1cnc2cccnc21 (centres unmarked) [1-(4-{2-[2-(4-hydroxypiperidin-1-yl)pyrimidin-5-yl]phenyl}-2-methylpiperazin-1-yl)-2-(3H-imidazo[4,5-b]pyridin-3-yl)ethanone]
- IC50: 11 nM

SMILES: C[C@@H]1CN(c2ncc(-c3ccccc3N3CCN(C(=O)Cn4ccc5cccnc54)CC3)cn2)C[C@@H](C)O1 [1-(4-{2-[2-((2R,6R)-2,6-Dimethyl-morpholin-4-yl)-pyrimidin-5-yl]-phenyl}-piperazin-1-yl)-2-pyrrolo[2,3-b]pyridin-1-yl-ethanone]
- IC50: 7 nM

SMILES: C[C@@H]1CN(c2ncc(-c3ccccc3N3CCN(C(=O)Cn4ccc5cccnc54)CC3)cn2)C[C@H](C)O1 [1-(4-{2-[2-((2R,6S)-2,6-Dimethyl-morpholin-4-yl)-pyrimidin-5-yl]-phenyl}-piperazin-1-yl)-2-pyrrolo[2,3-b]pyridin-1-yl-ethanone]
- IC50: 10 nM

SMILES: Cc1cc(C)n(CC(=O)N2CCN(c3ccccc3-c3cnc(N4CC[C@@H](N(C)C)C4)nc3)CC2)n1 [1-(4-{2-[2-((R)-3-Dimethylamino-pyrrolidin-1-yl)-pyrimidin-5-yl]-phenyl}-piperazin-1-yl)-2-(3,5-dimethyl-pyrazol-1-yl)-ethanone]
- IC50: 4 nM

SMILES: Cc1cc(C)n(CC(=O)N2CCN(c3ccccc3-c3cnc(N4C[C@H]5CC[C@@H]4C5)nc3)CC2)n1 [1-(4-{2-[(1R,4S)-2-(2-Aza-bicyclo[2.2.1]hept-2-yl)-pyrimidin-5-yl]-phenyl}-piperazin-1-yl)-2-(3,5-dimethyl-pyrazol-1-yl)-ethanone]
- IC50: 4 nM

SMILES: O=C(Cn1ccc2cccnc21)N1CCN(c2ccc(F)cc2-c2cnc(N3CCC(O)CC3)nc2)CC1 [1-(4-{4-fluoro-2-[2-(4-hydroxypiperidin-1-yl)pyrimidin-5-yl]phenyl}piperazin-1-yl)-2-(1H-pyrrolo[2,3-b]pyridin-1-yl)ethanone]
- IC50: 8 nM

SMILES: O=C(Cn1ccc2ccncc21)N1CCN(c2ccc(F)cc2-c2cnc(N3CCC(O)CC3)nc2)CC1 [1-(4-{4-fluoro-2-[2-(4-hydroxypiperidin-1-yl)pyrimidin-5-yl]phenyl}piperazin-1-yl)-2-(1H-pyrrolo[2,3-c]pyridin-1-yl)ethanone]
- IC50: 10 nM

SMILES: O=C(Cn1cnc2cccnc21)N1CCN(c2ccc(F)cc2-c2cnc(N3CCC(O)CC3)nc2)CC1 [1-(4-{4-fluoro-2-[2-(4-hydroxypiperidin-1-yl)pyrimidin-5-yl]phenyl}piperazin-1-yl)-2-(3H-imidazo[4,5-b]pyridin-3-yl)ethanone]
- IC50: 8 nM

SMILES: CN1CCN(c2ncc(-c3cc(F)ccc3N3CCN(C(=O)Cn4ccc5cccnc54)CC3)cn2)CC1 [1-(4-{4-fluoro-2-[2-(4-methylpiperazin-1-yl)pyrimidin-5-yl]phenyl}piperazin-1-yl)-2-(1H-pyrrolo[2,3-b]pyridin-1-yl)ethanone]
- IC50: 20 nM

SMILES: CN1CCN(c2ncc(-c3cc(F)ccc3N3CCN(C(=O)Cn4cnc5cccnc54)CC3)cn2)CC1 [1-(4-{4-fluoro-2-[2-(4-methylpiperazin-1-yl)pyrimidin-5-yl]phenyl}piperazin-1-yl)-2-(3H-imidazo[4,5-b]pyridin-3-yl)ethanone]
- IC50: 43 nM

SMILES: CC1CN(c2ccc(F)cc2-c2cnc(S(C)(=O)=O)nc2)CCN1C(=O)Cn1ccc2cccnc21 (centres unmarked) [1-(4-{4-fluoro-2-[2-(methylsulfonyl)pyrimidin-5-yl]phenyl}-2-methylpiperazin-1-yl)-2-(1H-pyrrolo[2,3-b]pyridin-1-yl)ethanone]
- IC50: 48 nM

SMILES: CS(=O)(=O)c1ncc(-c2cc(F)ccc2N2CCN(C(=O)Cn3ccc4cccnc43)CC2)cn1 [1-(4-{4-fluoro-2-[2-(methylsulfonyl)pyrimidin-5-yl]phenyl}piperazin-1-yl)-2-(1H-pyrrolo[2,3-b]pyridin-1-yl)ethanone]
- IC50: 67 nM

SMILES: CS(=O)(=O)c1ncc(-c2cc(F)ccc2N2CCN(C(=O)Cn3cnc4cccnc43)CC2)cn1 [1-(4-{4-fluoro-2-[2-(methylsulfonyl)pyrimidin-5-yl]phenyl}piperazin-1-yl)-2-(3H-imidazo[4,5-b]pyridin-3-yl)ethanone]
- IC50: 488 nM

SMILES: O=C(Cn1ccc2cccnc21)N1CCN(c2ccc(F)cc2-c2cnc(N3CCOCC3)nc2)CC1 [1-(4-{4-fluoro-2-[2-(morpholin-4-yl)pyrimidin-5-yl]phenyl}piperazin-1-yl)-2-(1H-pyrrolo[2,3-b]pyridin-1-yl)ethanone]
- IC50: 14 nM

SMILES: O=C(Cn1ccc2ccncc21)N1CCN(c2ccc(F)cc2-c2cnc(N3CCOCC3)nc2)CC1 [1-(4-{4-fluoro-2-[2-(morpholin-4-yl)pyrimidin-5-yl]phenyl}piperazin-1-yl)-2-(1H-pyrrolo[2,3-c]pyridin-1-yl)ethanone]
- IC50: 13 nM

From patent US8450317B2, “CXCR3 receptor antagonists” (Boehringer Ingelheim International GmbH, priority 2009, dated 2013)
